Data from patent US20090062294A1, “HETEROARYL-SUBSTITUTED UREA MODULATORS OF FATTY ACID AMIDE HYDROLASE” (priority 2007, published 2009).
Counter-ions that a name gives are not always drawn.

Key:
rat FAAH = target: T1, rat FAAH (Rattus norvegicus, UniProt P97612); assay: Assay Method 2: FAAH assay, 3H-anandamide hydrolysis in homogenate of SK-N-MC cells transfected with rat FAAH; assay type: biochemical; settings: average of results, > = solubility limit or highest concentration tested
T1 sequence (P97612 1-579): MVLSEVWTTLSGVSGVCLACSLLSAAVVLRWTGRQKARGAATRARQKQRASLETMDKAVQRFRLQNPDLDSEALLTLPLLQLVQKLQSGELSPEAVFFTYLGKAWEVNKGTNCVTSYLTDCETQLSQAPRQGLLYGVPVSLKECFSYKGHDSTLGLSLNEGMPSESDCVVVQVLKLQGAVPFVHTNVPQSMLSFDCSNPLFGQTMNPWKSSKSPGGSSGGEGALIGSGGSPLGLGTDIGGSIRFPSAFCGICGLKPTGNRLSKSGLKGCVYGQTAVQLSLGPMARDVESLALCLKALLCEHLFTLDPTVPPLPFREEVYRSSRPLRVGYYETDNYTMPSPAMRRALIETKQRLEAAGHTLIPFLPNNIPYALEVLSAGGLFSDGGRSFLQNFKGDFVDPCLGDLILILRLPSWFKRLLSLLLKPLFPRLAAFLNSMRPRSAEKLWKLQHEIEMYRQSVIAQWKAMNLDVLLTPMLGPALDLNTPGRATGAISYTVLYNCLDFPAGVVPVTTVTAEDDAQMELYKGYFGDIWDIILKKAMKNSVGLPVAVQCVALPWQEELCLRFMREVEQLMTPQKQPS
Protocol: A. Transfection of Cells with Rat FAAH
(§1) A 10-cm tissue culture dish with a confluent monolayer of SK—N-MC cells was split 2 days (d) prior to transfection. Using sterile technique, the media was removed and the cells were detached from the dish by the addition of trypsin. One fifth of the cells were then placed onto a new 10-cm dish. Cells were grown in a 37° C. incubator with 5% CO2 in Minimal Essential Media Eagle with 10% Fetal Bovine Serum. After 2 d, cells were approximately 80% confluent. These cells were removed from the dish with trypsin and pelleted in a clinical centrifuge. The pellet was re-suspended in 400 μL complete media and transferred to an electroporation cuvette with a 0.4 cm gap between the electrodes. Supercoiled rat FAAH cDNA (1 μg) was added to the cells and mixed. The voltage for the electroporation was set at 0.25 kV, and the capacitance was set at 960 μF. After electroporation, the cells were diluted into complete media (10 mL) and plated onto four 10-cm dishes. Because of the variability in the efficiency of electroporation, four different concentrations of cells were plated. The ratios used were 1:20, 1:10, and 1:5, with the remainder of the cells being added to the fourth dish. The cells were allowed to recover for 24 h before adding the selection media (complete media with 600 μg/mL G418). After 10 d, dishes were analyzed for surviving colonies of cells. Dishes with well-isolated colonies were used. Cells from individual colonies were isolated and tested.
(§2) T84 frozen cell pellets or transfected SK—N-MC cells (contents of 1×15 cm culture dishes) were homogenized in 50 mL of FAAH assay buffer (125 mM Tris, 1 mM EDTA, 0.2% Glycerol, 0.02% Triton X-100, 0.4 mM Hepes, pH 9). The assay mixture consisted of 50 μL of the cell homogenate, 10 μL of the test compound, and 40 μL of anandamide [1-^3H-ethanolamine] (^3H-AEA, Perkin-Elmer, 10.3 Ci/mmol), which was added last, for a final tracer concentration of 80 nM. The reaction mixture was incubated at rt for 1 h. During the incubation, 96-well Multiscreen filter plates (catalog number MAFCNOB50; Millipore, Bedford, Mass., USA) were loaded with 25 μL of activated charcoal (Multiscreen column loader, catalog number MACL09625, Millipore) and washed once with 100 μL of MeOH. Also during the incubation, 96-well DYNEX MicroLite plates (catalog number NL510410) were loaded with 100 μL of MicroScint40 (catalog number 6013641, Packard Bioscience, Meriden, Conn., USA). After the 1 h incubation, 60 μL of the reaction mixture were transferred to the charcoal plates, which were then assembled on top of the DYNEX plates using Centrifuge Alignment Frames (catalog number MACF09604, Millipore). The unbound labeled ethanolamine was centrifuged through to the bottom plate (5 min at 2000 rpm), which was preloaded with the scintillant, as described above. The plates were sealed and left at rt for 1 h before counting on a Hewlett Packard TopCount.
(§3) Compounds were tested in free base, hydrochloride salt, and/or trifluoroacetic acid salt forms.

FAAH = target: T2, FAAH (Homo sapiens, UniProt O00519); assay: Assay Method 1: FAAH assay, 3H-anandamide hydrolysis in homogenate of T84 cells or SK-N-MC cells transfected with human FAAH; assay type: biochemical; settings: average of results, > = solubility limit or highest concentration tested
T2 sequence (O00519 1-579): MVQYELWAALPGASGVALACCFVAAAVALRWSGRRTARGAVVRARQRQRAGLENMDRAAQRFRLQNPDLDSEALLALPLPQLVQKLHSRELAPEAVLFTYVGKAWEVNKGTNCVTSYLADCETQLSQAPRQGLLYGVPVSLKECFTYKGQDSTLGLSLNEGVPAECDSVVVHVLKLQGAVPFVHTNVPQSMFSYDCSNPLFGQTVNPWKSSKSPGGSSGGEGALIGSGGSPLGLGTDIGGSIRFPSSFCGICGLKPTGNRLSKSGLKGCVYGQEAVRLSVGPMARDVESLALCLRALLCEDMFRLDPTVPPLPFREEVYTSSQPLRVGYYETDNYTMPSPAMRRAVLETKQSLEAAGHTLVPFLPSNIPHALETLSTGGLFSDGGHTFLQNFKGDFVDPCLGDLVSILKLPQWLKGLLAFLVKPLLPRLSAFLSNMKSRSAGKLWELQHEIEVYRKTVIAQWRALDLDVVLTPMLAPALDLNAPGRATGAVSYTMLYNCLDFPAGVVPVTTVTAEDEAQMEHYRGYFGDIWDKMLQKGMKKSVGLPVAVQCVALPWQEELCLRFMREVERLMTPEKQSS
Protocol: A. Transfection of Cells with Human FAAH
as §1, with “Supercoiled human” for “Supercoiled rat”
as §2, §3

Structure (SMILES) | IC50 (rat FAAH) [nM] | IC50 (FAAH) [nM]
Cc1cc(NC(=O)N2CCN(Cc3cccc(Oc4ccc(Cl)cc4)c3)CC2)nn1C [Example 191, 4-[3-(4-Chloro-phenoxy)-benzyl]-piperazine-1-carboxylic acid (1,5-dimethyl-1H-pyrazol-3-yl)-amide trifluoroacetic acid salt] | > 10000 | 3000
O=C(Nc1cnccn1)N1CCN(Cc2cccc(Oc3cccc(Cl)c3)c2)CC1 [Example 225, 4-[3-(3-Chlorophenoxy)benzyl]-N-pyrazin-2-ylpiperazine-1-carboxamide] | 535 | 43
O=C(Nc1ccon1)N1CCN(Cc2cccc(Oc3cccc(Br)c3)c2)CC1 [Example 157, 4-[3-(3-Bromophenoxy)benzyl]-N-isoxazol-3-ylpiperazine-1-carboxamide] | 360 | 80
O=C(Nc1noc2ccccc12)N1CCN(Cc2cccc(Oc3ccc(S(=O)(=O)C(F)(F)F)cc3)c2)CC1 [Example 132, N-1,2-Benzisoxazol-3-yl-4-(3-{4-[(trifluoromethyl)sulfonyl]phenoxy}-benzyl)piperazine-1-carboxamide] | 5 | 23
O=C(Nc1noc2ccccc12)N1CCN(Cc2cccc(Oc3ccc(F)cc3)c2)CC1 [Example 208, 4-[3-(4-Fluoro-phenoxy)-benzyl]-piperazine-1-carboxylic acid benzo[d]isoxazol-3-ylamide] | 17 | 21
N#Cc1c(F)cccc1C#Cc1cccc(CN2CCN(C(=O)Nc3noc4ccccc34)CC2)c1 [Example 91, N-1,2-Benzisoxazol-3-yl-4-{3-[(2-cyano-3-fluorophenyl)ethynyl]-benzyl}piperazine-1-carboxamide] | 21 | 30
O=C(Nc1nnn[nH]1)N1CCN(Cc2cnc3ccccc3c2)CC1 [Example 165, 4-(Quinolin-3-ylmethyl)-N-1H-tetrazol-5-ylpiperazine-1-carboxamide] | 6000 | 8000
O=C(Nc1cccnn1)N1CCN(Cc2ccc3ccccc3n2)CC1 [Example 198, N-Pyridazin-3-yl-4-(quinolin-2-ylmethyl)piperazine-1-carboxamide] | 6000 | 390
O=C(Nc1cnccn1)N1CCN(Cc2cccc(Oc3ccc(SC(F)(F)F)cc3)c2)CC1 [Example 234, N-Pyrazin-2-yl-4-(3-{4-[(trifluoromethyl)sulfanyl]phenoxy}benzyl)-piperazine-1-carboxamide] | 12 | 6
O=C(Nc1cccnn1)N1CCN(Cc2ccc3ccccc3c2)CC1 [Example 200, 4-(Naphthalen-2-ylmethyl)-N-pyridazin-3-ylpiperazine-1-carboxamide] | 500 | 38
O=C(Nc1noc2ccccc12)N1CCN(Cc2cccc(Oc3ccc(OC(F)(F)F)cc3)c2)CC1 [Example 30, 4-[3-(4-Trifluoromethoxy-phenoxy)-benzyl]-piperazine-1-carboxylic acid benzo[d]isoxazol-3-ylamide trifluoroacetic acid salt] | 14 | 0.1
O=C(Nc1noc2ccccc12)N1CCN(Cc2cccc(Oc3cnccn3)c2)CC1 [Example 97, N-1,2-Benzisoxazol-3-yl-4-[3-(pyrazin-2-yloxy)benzyl]piperazine-1-carboxamide] | 5000 | 270
O=C(Nc1nnn[nH]1)N1CCN(Cc2cccc(Oc3ccc(C(F)(F)F)cc3)c2)CC1 [Example 171, N-1H-Tetrazol-5-yl-4-{3-[4-(trifluoromethyl)phenoxy]benzyl}piperazine-1-carboxamide] | 35 | 200
O=C(Nc1cnccn1)N1CCN(Cc2ccc3ccccc3n2)CC1 [Example 239, N-Pyrazin-2-yl-4-(quinolin-2-ylmethyl)piperazine-1-carboxamide] | 6000 | 700
O=C(Nc1cnccn1)N1CCN(Cc2cnc3ccccc3c2)CC1 [Example 224, N-Pyrazin-2-yl-4-(quinolin-3-ylmethyl)piperazine-1-carboxamide] | > 10000 | 4000
O=C(Nc1ccon1)N1CCN(Cc2ccc3c(c2)OCO3)CC1 [Example 143, 4-(1,3-Benzodioxol-5-ylmethyl)-N-isoxazol-3-ylpiperazine-1-carboxamide] | > 10000 | > 10000
O=C(Nc1cnccn1)N1CCN(Cc2ccc(Br)cc2)CC1 [Example 212, 4-(4-Bromobenzyl)-N-pyrazin-2-ylpiperazine-1-carboxamide] | 8000 | 500
O=C(Nc1nnn[nH]1)N1CCN(Cc2cccc(Oc3ccc(SC(F)(F)F)cc3)c2)CC1 [Example 172, N-1H-Tetrazol-5-yl-4-(3-{4-[(trifluoromethyl)sulfanyl]phenoxy}benzyl)-piperazine-1-carboxamide] | 10 | 50
O=C(Nc1noc2ccccc12)N1CCN(Cc2cccc(Oc3ccc(C(F)(F)F)c(Cl)c3)c2)CC1 [Example 204, 4-[3-(3-Chloro-4-trifluoromethyl-phenoxy)-benzyl]-piperazine-1-carboxylic acid benzo[d]isoxazol-3-ylamide trifluoroacetic acid salt] | 32 | 14
O=C(Nc1cnccn1)N1CCN(Cc2cccc(Oc3ccc(C(F)(F)F)cc3)c2)CC1 [Example 215, N-Pyrazin-2-yl-4-{3-[4-(trifluoromethyl)phenoxy]benzyl}piperazine-1-carboxamide] | 30 | 1
